# Target: T1, human αVβ6 (Homo sapiens, UniProt P06756+P18564)
# T1 construct: purchased R & D systems 3817-AV
# Test: human αVβ6 HTRF binding assay
# Conditions: biotinylated recombinant human αVβ6 integrin 1.25 nM, FITC-conjugated fibronectin 5 nM
# Protocol: All binding assays used the HTRF (homogeneous time resolved fluorescence) technology from Cisbio International, therefore all assays are described as HTRF binding assays. The assay results for the Examples are listed in Table 1, exemplified by human αVβ6 (?). The HTRF binding assays are established for the following integrins: human αVβ6, human αVβ1, human αVβ3, human αVβ5, and human αVβ8. All assays used the following assay buffer: 20 mM Tris, pH 7.4, 1 mM MgCl2, 1 mM MnCl2, 0.01% Tween 20, and 0.01% BSA. Alternatively, a SPA-based assay was used for evaluation of receptor binding.
# […]
# T1 sequence (P06756 31-992 limits assumed): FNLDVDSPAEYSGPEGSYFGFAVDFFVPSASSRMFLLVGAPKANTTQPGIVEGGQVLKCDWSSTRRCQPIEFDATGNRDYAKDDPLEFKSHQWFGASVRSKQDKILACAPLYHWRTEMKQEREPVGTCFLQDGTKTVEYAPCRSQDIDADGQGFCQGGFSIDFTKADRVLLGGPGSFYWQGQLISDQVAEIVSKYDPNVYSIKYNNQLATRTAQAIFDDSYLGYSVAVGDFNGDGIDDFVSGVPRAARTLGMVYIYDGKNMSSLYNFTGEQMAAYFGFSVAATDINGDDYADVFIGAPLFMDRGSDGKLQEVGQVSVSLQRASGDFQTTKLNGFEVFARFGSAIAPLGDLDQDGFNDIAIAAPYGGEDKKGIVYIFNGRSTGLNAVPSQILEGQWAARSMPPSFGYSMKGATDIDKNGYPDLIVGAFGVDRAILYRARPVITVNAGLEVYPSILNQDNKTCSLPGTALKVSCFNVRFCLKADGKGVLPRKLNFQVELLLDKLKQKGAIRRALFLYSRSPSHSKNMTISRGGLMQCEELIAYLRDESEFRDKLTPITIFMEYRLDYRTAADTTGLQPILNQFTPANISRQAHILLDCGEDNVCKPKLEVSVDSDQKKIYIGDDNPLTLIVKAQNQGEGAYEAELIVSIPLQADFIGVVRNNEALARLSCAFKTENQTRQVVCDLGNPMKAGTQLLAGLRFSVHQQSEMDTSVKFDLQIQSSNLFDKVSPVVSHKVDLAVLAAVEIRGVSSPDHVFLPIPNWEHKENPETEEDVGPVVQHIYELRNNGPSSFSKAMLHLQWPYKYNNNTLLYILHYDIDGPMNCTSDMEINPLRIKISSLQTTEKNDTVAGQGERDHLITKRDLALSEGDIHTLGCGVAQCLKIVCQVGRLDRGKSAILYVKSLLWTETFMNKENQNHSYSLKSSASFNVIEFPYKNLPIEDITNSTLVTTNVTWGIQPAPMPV
# T1 sequence (P18564 22-707 limits assumed): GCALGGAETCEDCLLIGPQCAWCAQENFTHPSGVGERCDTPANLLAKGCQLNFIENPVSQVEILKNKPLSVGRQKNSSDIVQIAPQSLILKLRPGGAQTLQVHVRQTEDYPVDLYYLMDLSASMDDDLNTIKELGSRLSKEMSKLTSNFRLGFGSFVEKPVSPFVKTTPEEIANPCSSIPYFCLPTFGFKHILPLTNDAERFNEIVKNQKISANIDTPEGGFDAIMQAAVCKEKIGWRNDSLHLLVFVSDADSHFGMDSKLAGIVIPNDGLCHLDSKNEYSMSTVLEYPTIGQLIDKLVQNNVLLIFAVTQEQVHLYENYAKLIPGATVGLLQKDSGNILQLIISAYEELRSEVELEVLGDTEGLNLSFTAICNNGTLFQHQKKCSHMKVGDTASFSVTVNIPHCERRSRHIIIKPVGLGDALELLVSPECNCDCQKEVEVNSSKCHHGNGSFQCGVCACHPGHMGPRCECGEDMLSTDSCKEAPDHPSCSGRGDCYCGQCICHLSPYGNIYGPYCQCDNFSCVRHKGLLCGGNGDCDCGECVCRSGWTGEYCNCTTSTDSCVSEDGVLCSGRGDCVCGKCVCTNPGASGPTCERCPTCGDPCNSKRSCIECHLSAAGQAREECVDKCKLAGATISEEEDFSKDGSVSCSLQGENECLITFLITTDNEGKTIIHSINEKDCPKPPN
row,Compound,IC50
1,"COc1ccc([C@H](CC(=O)O)N2CCn3cc(CCC4CCc5cccnc5N4)cc3C2=O)cn1 (single isomer, unassigned) [Example 11]",2.3 nM
2,COc1ccc([C@@H](CC(=O)O)N2CCn3cc(CCc4ccc5c(n4)NCCC5)cc3C2=O)cc1F [Example 4],80 nM
3,CC(C)(C)c1cc(Br)cc([C@H](CC(=O)O)N2CCn3cc(CCc4ccc5c(n4)NCCC5)cc3C2=O)c1 [Example 5],0.59 nM
4,"CC(C)COc1ccc([C@H](CC(=O)O)N2CCn3cc(CCc4ccc5c(n4)NCCC5)cc3C2=O)cn1 [Example 22, (S)-3-(6-Isobutoxypyridin-3-yl)-3-(1-oxo-7-(2-(5,6,7,8-tetrahydro-1,8-naphthyridin-2-yl)ethyl)-3,4-dihydropyrrolo[1,2-a]pyrazin-2(1H)-yl)propanoic acid]",1.6 nM
5,COc1ccc([C@H](CC(=O)O)N2CCn3cc(CCC4CCc5cccnc5N4)cc3C2=O)cn1 (mixture of isomers) [Example 9],0.6 nM
6,"CCOc1ccc([C@H](CC(=O)O)N2CCn3cc(CCc4ccc5c(n4)NCCC5)cc3C2=O)cn1 [Example 23, (S)-3-(6-Ethoxypyridin-3-yl)-3-(1-oxo-7-(2-(5,6,7,8-tetrahydro-1,8-naphthyridin-2-yl)ethyl)-3,4-dihydropyrrolo[1,2-a]pyrazin-2(1H)-yl)propanoic acid]",1.6 nM
7,O=C(O)C[C@@H](c1cc(Cl)cc(Cl)c1)N1CCn2cc(CCc3ccc4c(n3)NCCC4)cc2C1=O [Example 6],0.98 nM
8,"COc1ccc([C@H](CC(=O)O)N2CCn3cc(CCc4ccc5c(n4)NCCC5)cc3C2=O)cc1F [Example 1, (S)-3-(3-Fluoro-4-methoxyphenyl)-3-(1-oxo-7-(2-(5,6,7,8-tetrahydro-1,8-naphthyridin-2-yl)ethyl)-3,4-dihydropyrrolo[1,2-a]pyrazin-2(1H)-yl)propanoic acid]",3.2 nM
9,"COc1ccc([C@H](CC(=O)O)N2CCn3cc(-c4ccc5c(n4)NCCC5)cc3C2=O)cc1F [Example 28, (S)-3-(3-Fluoro-4-methoxyphenyl)-3-(1-oxo-7-(5,6,7,8-tetrahydro-1,8-naphthyridin-2-yl)-3,4-dihydropyrrolo[1,2-a]pyrazin-2(1H)-yl)propanoic acid]",340 nM
10,"COc1ccc([C@H](CC(=O)O)N2CCn3cc(CCC4CCc5cccnc5N4)cc3C2=O)cc1F (mixture of isomers) [Example 2, (3S)-3-(3-Fluoro-4-methoxyphenyl)-3-(1-oxo-7-(2-(1,2,3,4-tetrahydro-1,8-naphthyridin-2-yl)ethyl)-3,4-dihydropyrrolo[1,2-a]pyrazin-2(1H)-yl)propanoic acid]",0.51 nM
11,"COc1ccc([C@H](CC(=O)O)N2CCn3cc(CCC4CCc5cccnc5N4)cc3C2=O)cn1 (single isomer, unassigned) [Example 12]",3.2 nM
12,O=C(O)C[C@@H](c1cnc2ccccc2c1)N1CCn2cc(CCc3ccc4c(n3)NCCC4)cc2C1=O [Example 16],1.8 nM
13,COc1ccc([C@H](CC(=O)O)N2CCn3c(cc(CCc4ccc5c(n4)NCCC5)c3C)C2=O)cc1F [Example 7],69 nM
14,Cc1ncc([C@H](CC(=O)O)N2CCn3cc(CCCc4ccc5c(n4)NCCC5)cc3C2=O)cn1 [Example 21],5.6 nM
15,"O=C(O)C[C@@H](c1ccc(OCC2CC2)nc1)N1CCn2cc(CCc3ccc4c(n3)NCCC4)cc2C1=O [Example 24, (S)-3-(6-(Cyclopropylmethoxy)pyridin-3-yl)-3-(1-oxo-7-(2-(5,6,7,8-tetrahydro-1,8-naphthyridin-2-yl)ethyl)-3,4-dihydropyrrolo[1,2-a]pyrazin-2(1H)-yl)propanoic acid]",1.6 nM
16,COc1ncc([C@H](CC(=O)O)N2CCn3cc(CCCc4ccc5c(n4)NCCC5)cc3C2=O)cn1 [Example 20],3.4 nM

row,Compound,IC50
1,COc1ccc([C@H](CC(=O)O)N2CCn3cc(C(Cc4ccc5c(n4)NCCC5)Cc4ccc5c(n4)NCCC5)cc3C2=O)cc1F [Example 10],1.3 nM
2,O=C(O)CC(c1cnc2ccccc2n1)N1CCn2cc(CCc3ccc4c(n3)NCCC4)cc2C1=O (stereo not shown) [Example 18],140 nM
3,Cc1cc(C)c(S(=O)(=O)N[C@@H](CN2CCn3cc(CCc4ccc5c(n4)NCCC5)cc3C2=O)C(=O)O)c(C)c1 [Example 8],25 nM
4,O=C(O)C[C@@H](c1cnc2ccccc2c1)N1CCn2cc(CCCc3ccc4c(n3)NCCC4)cc2C1=O [Example 19],6.5 nM
5,"O=C(N[C@@H](CN1CCn2cc(CCc3ccc4c(n3)NCCC4)cc2C1=O)C(=O)O)OCc1ccccc1 [Example 25, (S)-2-(((Benzyloxy)carbonyl)amino)-3-(1-oxo-7-(2-(5,6,7,8-tetrahydro-1,8-naphthyridin-2-yl)ethyl)-3,4-dihydropyrrolo[1,2-a]pyrazin-2(1H)-yl)propanoic acid]",4.6 nM
6,"COc1ccc([C@H](CC(=O)O)N2CCn3cc(CCc4ccc5c(n4)NCCC5)cc3C2=O)cn1 [Example 3, (S)-3-(6-Methoxypyridin-3-yl)-3-(1-oxo-7-(2-(5,6,7,8-tetrahydro-1,8-naphthyridin-2-yl)ethyl)-3,4-dihydropyrrolo[1,2-a]pyrazin-2(1H)-yl)propanoic acid]",2.4 nM
7,"COc1ccc([C@H](CC(=O)O)N2CCn3cc(CCCCc4ccc5c(n4)NCCC5)cc3C2=O)cc1F [Example 31, (S)-3-(3-Fluoro-4-methoxyphenyl)-3-(1-oxo-7-(4-(5,6,7,8-tetrahydro-1,8-naphthyridin-2-yl)butyl)-3,4-dihydropyrrolo[1,2-a]pyrazin-2(1H)-yl)propanoic acid]",12 nM
8,O=C(O)C[C@@H](c1ccc2c(c1)OCC2)N1CCn2cc(CCc3ccc4c(n3)NCCC4)cc2C1=O [Example 17],2.6 nM
9,"(S)-3-(3-Fluoro-4-methoxyphenyl)-3-(1-oxo-7-(4-(5,6,7,8-tetrahydro-1,8-naphthyridin-2-yl)butyl)-3,4-dihydropyrrolo[1,2-a]pyrazin-2(1H)-yl)propanoic acid, TFA [Example 32]",410 nM
10,O=C(O)CC(c1cncnc1)N1CCn2cc(CCc3ccc4c(n3)NCCC4)cc2C1=O (stereo not shown) [Example 15],23 nM
11,"COc1ccc([C@H](CC(=O)O)N2CCn3cc(CCCc4ccc5c(n4)NCCC5)cc3C2=O)cn1 [Example 30, (S)-3-(6-Methoxypyridin-3-yl)-3-(1-oxo-7-(3-(5,6,7,8-tetrahydro-1,8-naphthyridin-2-yl)propyl)-3,4-dihydropyrrolo[1,2-a]pyrazin-2(1H)-yl)propanoic acid]",1.1 nM
12,"O=C(O)C[C@@H](c1ccc(O)c(F)c1)N1CCn2cc(CCc3ccc4c(n3)NCCC4)cc2C1=O [Example 27, (S)-3-(3-Fluoro-4-hydroxyphenyl)-3-(1-oxo-7-(2-(5,6,7,8-tetrahydro-1,8-naphthyridin-2-yl)ethyl)-3,4-dihydropyrrolo[1,2-a]pyrazin-2(1H)-yl)propanoic acid]",4.8 nM
13,"COc1ccc([C@H](CC(=O)O)N2CCn3cc(Cc4ccc5c(n4)NCCC5)cc3C2=O)cc1F [Example 29, (S)-3-(3-Fluoro-4-methoxyphenyl)-3-(1-oxo-7-((5,6,7,8-tetrahydro-1,8-naphthyridin-2-yl)methyl)-3,4-dihydropyrrolo[1,2-a]pyrazin-2(1H)-yl)propanoic acid]",0.73 nM
14,"COc1ccc([C@H](CC(=O)O)N2CCn3c(cc(CCc4ccc5c(n4)NCCC5)c3I)C2=O)cc1F [Example 26, (S)-3-(3-Fluoro-4-methoxyphenyl)-3-(6-iodo-1-oxo-7-(2-(5,6,7,8-tetrahydro-1,8-naphthyridin-2-yl)ethyl)-3,4-dihydropyrrolo[1,2-a]pyrazin-2(1H)-yl)propanoic acid]",53 nM
15,Cc1ncc(C(CC(=O)O)N2CCn3cc(CCc4ccc5c(n4)NCCC5)cc3C2=O)cn1 (stereo not shown) [Example 13],7.2 nM
